These results are taken from patent US12492181B2, “Gem-disubstituted piperidine melanocortin subtype-2 receptor (MC2R) antagonists and uses thereof” (Crinetics Pharmaceuticals, Inc., priority 2019, dated 2025).

Structures are written as SMILES.

T1 sequence (Q01718 whole entry): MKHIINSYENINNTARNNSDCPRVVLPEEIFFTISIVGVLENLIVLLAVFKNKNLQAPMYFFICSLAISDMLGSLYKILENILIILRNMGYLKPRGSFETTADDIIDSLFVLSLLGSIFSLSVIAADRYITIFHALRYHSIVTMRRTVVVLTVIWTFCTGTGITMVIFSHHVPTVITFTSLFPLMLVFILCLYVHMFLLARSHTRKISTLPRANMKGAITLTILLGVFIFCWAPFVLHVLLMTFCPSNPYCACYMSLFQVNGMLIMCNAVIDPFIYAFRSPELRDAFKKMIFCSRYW
T1 sequence (Q8TCY5 whole entry partner): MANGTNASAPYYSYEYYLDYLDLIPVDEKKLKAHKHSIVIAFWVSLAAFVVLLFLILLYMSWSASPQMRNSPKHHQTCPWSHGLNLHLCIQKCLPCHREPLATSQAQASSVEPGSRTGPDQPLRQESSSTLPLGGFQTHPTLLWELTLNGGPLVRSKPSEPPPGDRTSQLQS

The assay has as its target T1, hMC2 receptor (crude hMC2R membranes from CRE-bla-CHO-K1 cells stably expressing hMC2 receptor and hMRAP accessory protein) (Homo sapiens, UniProt Q01718).
T1 construct: crude membrane fractions
Description: hMC2 membrane binding assay ([125I]ACTH (1-39) Tyr23, SPA). The following applies: displacement of 0.2 nM [125I]ACTH (1-39) Tyr23 from hMC2R membranes, 1.5 hours at room temperature; read-out: MC2R binding potency. Summed up:
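Crude membranes from CRE-bla-CHO-K1 cells stably co-expressing hMC2R and hMRAP, premixed with WGA PVT SPA beads in pH 7.4 HEPES buffer (5 mM MgCl2, 1 mM CaCl2, 0.20% BSA, protease inhibitors). Compounds compete with [125I]ACTH(1-39) Tyr23, read by scintillation. Ki from non-linear regression.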
Take `CN1CC[C@H](NC(=O)C2(c3cnc(-c4cccn4C)c(F)c3)CCN(c3ccc(C(F)(F)F)cc3Cl)CC2)C1` [Compound 1-162, 1-[2-chloro-4-(trifluoromethyl)phenyl]-4-[5-fluoro-6-(1-methyl-1H-pyrrol-2-yl)pyridin-3-yl]-N-[(3S)-1-methylpyrrolidin-3-yl]piperidine-4-carboxamide]: the Ki is below 0.01 µM.
As for `COc1ncccc1-c1ncc(C2(C(=O)NCCN(C)C)CCN(c3ccc(C(F)(F)F)cc3Cl)CC2)cc1F` [Compound 1-302, 1-[2-chloro-4-(trifluoromethyl)phenyl]-N-[2-(dimethylamino)ethyl]-4-{3-fluoro-2′-methoxy-[2,3′-bipyridin]-5-yl}piperidine-4-carboxamide], the figure is below 0.01 µM; as for `CN1CC(NC(=O)C2(c3ccc(-c4cccn4C)nc3)CCN(c3ccc(C(F)(F)F)cc3C#N)CC2)C1` [Compound 1-219, 1-[2-cyano-4-(trifluoromethyl)phenyl]-4-[6-(1-methyl-1H-pyrrol-2-yl)pyridin-3-yl]-N-(1-methylazetidin-3-yl)piperidine-4-carboxamide], below 0.01 µM; as for `CCOc1ccccc1-c1ccc(C2(C(=O)N[C@H]3CCN(C)C3)CCN(c3ccc(Cl)cc3C#N)CC2)nn1` [Compound 1-134, 1-(4-chloro-2-cyanophenyl)-4-[6-(2-ethoxyphenyl)pyridazin-3-yl]-N-[(3S)-1-methylpyrrolidin-3-yl]piperidine-4-carboxamide], below 0.01 µM.
In the case of `CCOc1ncccc1-c1ccc(C2(C(=O)N[C@H]3CCN(C)C3)CCN(c3ccc(C(F)(F)F)nc3C#N)CC2)cn1` [Compound 1-26, 1-[2-cyano-6-(trifluoromethyl)pyridin-3-yl]-4-{2′-ethoxy-[2,3′-bipyridin]-5-yl}-N-[(3S)-1-methylpyrrolidin-3-yl]piperidine-4-carboxamide] it was below 0.01 µM; in that of `CCOc1ccccc1-c1ncc(C2(C(=O)N[C@H]3CCN(C)C3)CCN(c3ccc(C(F)(F)F)cc3C#N)CC2)cc1F` [Compound 1-124, 1-[2-cyano-4-(trifluoromethyl)phenyl]-4-[6-(2-ethoxyphenyl)-5-fluoropyridin-3-yl]-N-[(3S)-1-methylpyrrolidin-3-yl]piperidine-4-carboxamide], below 0.01 µM; in that of `CCOc1ncccc1-c1ccc(C2(C(=O)NCCN)CCN(c3ccc(C(F)(F)F)cc3C#N)CC2)cc1` [Compound 1-3, N-(2-aminoethyl)-1-[2-cyano-4-(trifluoromethyl)phenyl]-4-[4-(2-ethoxypyridin-3-yl)phenyl]piperidine-4-carboxamide], 0.01 to 0.1 µM.
Consider `COc1ccccc1-c1ccc(C2(C(=O)NCCN3CCC3)CCN(c3ccc(C(F)(F)F)cc3C#N)CC2)cn1` [Compound 1-245, N-[2-(azetidin-1-yl)ethyl]-1-[2-cyano-4-(trifluoromethyl)phenyl]-4-[6-(2-methoxyphenyl)pyridin-3-yl]piperidine-4-carboxamide], for which the Ki was below 0.01 µM.
As for `COc1ccccc1-c1ncc(C2(C(=O)N[C@H]3CCN(C)C3)CCN(c3ccc(C(F)(F)F)cc3C#N)CC2)cc1F` [Compound 1-127, 1-[2-cyano-4-(trifluoromethyl)phenyl]-4-[5-fluoro-6-(2-methoxyphenyl)pyridin-3-yl]-N-[(3S)-1-methylpyrrolidin-3-yl]piperidine-4-carboxamide], the figure is below 0.01 µM; as for `CN1CC[C@H](NC(=O)C2(c3ccc(-c4ccccn4)nc3)CCN(c3ccc(C(F)(F)F)cc3C#N)CC2)C1` [Compound 1-176, 4-{[2,2′-bipyridin]-5-yl}-1-[2-cyano-4-(trifluoromethyl)phenyl]-N-[(3S)-1-methylpyrrolidin-3-yl]piperidine-4-carboxamide], 0.01 to 0.1 µM.
In the case of `CN1CC[C@@H](NC(=O)C2(c3ccc(-c4cc(F)cc(F)c4)nc3)CCN(c3ccc(C(F)(F)F)cc3C#N)CC2)C1` [Compound 1-65, 1-[2-cyano-4-(trifluoromethyl)phenyl]-4-[6-(3,5-difluorophenyl)pyridin-3-yl]-N-[(3R)-1-methylpyrrolidin-3-yl]piperidine-4-carboxamide] it was 0.01 to 0.1 µM; in that of `CCc1ncccc1-c1ccc(C2(C(=O)N[C@@H]3CCN(C)C3)CCN(c3ccc(C(F)(F)F)cc3C#N)CC2)cn1` [Compound 1-118, 1-[2-cyano-4-(trifluoromethyl)phenyl]-4-{2′-ethyl-[2,3′-bipyridin]-5-yl}-N-[(3R)-1-methylpyrrolidin-3-yl]piperidine-4-carboxamide], below 0.01 µM; in that of `Cc1cscc1-c1ccc(C2(C(=O)N[C@@H]3CCN(C)C3)CCN(c3ccc(C(F)(F)F)cc3C#N)CC2)cn1` [Compound 1-138, 1-[2-cyano-4-(trifluoromethyl)phenyl]-N-[(3R)-1-methylpyrrolidin-3-yl]-4-[6-(4-methylthiophen-3-yl)pyridin-3-yl]piperidine-4-carboxamide], below 0.01 µM.
As for `CNCCNC(=O)C1(c2cnc(-c3ccccc3OC)c(F)c2)CCN(c2ccc(C(F)(F)F)cc2Cl)CC1` [Compound 1-294, 1-[2-chloro-4-(trifluoromethyl)phenyl]-4-[5-fluoro-6-(2-methoxyphenyl)pyridin-3-yl]-N-[2-(methylamino)ethyl]piperidine-4-carboxamide], the figure is 0.01 to 0.1 µM; as for `Cc1oncc1-c1ccc(C2(C(=O)N[C@@H]3CCN(C)C3)CCN(c3ccc(C(F)(F)F)cc3C#N)CC2)cn1` [Compound 1-157, 1-[2-cyano-4-(trifluoromethyl)phenyl]-4-[6-(5-methyl-1,2-oxazol-4-yl)pyridin-3-yl]-N-[(3R)-1-methylpyrrolidin-3-yl]piperidine-4-carboxamide], 0.01 to 0.1 µM.
Turning to `CCOc1ncccc1-c1ccc(C2(C(=O)NC[C@@H](CO)NC)CCN(c3ccc(C(F)(F)F)cc3C#N)CC2)cn1` [Compound 1-47, 1-[2-cyano-4-(trifluoromethyl)phenyl]-4-{2′-ethoxy-[2,3′-bipyridin]-5-yl}-N-[(2S)-3-hydroxy-2-(methylamino)propyl]piperidine-4-carboxamide], the Ki was below 0.01 µM.
As for `COc1ccccc1-c1ccc(C2(C(=O)NC[C@H]3CCN3)CCN(c3ccc(C(F)(F)F)cc3C#N)CC2)cn1` [Compound 1-236, N-{[(2R)-azetidin-2-yl]methyl}-1-[2-cyano-4-(trifluoromethyl)phenyl]-4-[6-(2-methoxyphenyl)pyridin-3-yl]piperidine-4-carboxamide], the figure is below 0.01 µM.
In the case of `CNCCNC(=O)C1(c2cnc(-c3cccnc3OC)c(F)c2)CCN(c2ccc(C(F)(F)F)cc2Cl)CC1` [Compound 1-303, 1-[2-chloro-4-(trifluoromethyl)phenyl]-4-{3-fluoro-2′-methoxy-[2,3′-bipyridin]-5-yl}-N-[2-(methylamino)ethyl]piperidine-4-carboxamide] it was below 0.01 µM.
As for `CCOc1ccccc1-c1ncc(C2(C(=O)N[C@H]3CCN(C)C3)CCN(c3ccc(C(F)(F)F)cc3Cl)CC2)cc1F` [Compound 1-202, 1-[2-chloro-4-(trifluoromethyl)phenyl]-4-[6-(2-ethoxyphenyl)-5-fluoropyridin-3-yl]-N-[(3S)-1-methylpyrrolidin-3-yl]piperidine-4-carboxamide], the figure is below 0.01 µM; as for `CCOc1ncccc1-c1ccc(C2(NC(=O)CN(C)C)CCN(c3ccc(C(F)(F)F)cc3C#N)CC2)cn1` [Compound 2-26, N-{1-[2-cyano-4-(trifluoromethyl)phenyl]-4-{2′-ethoxy-[2,3′-bipyridin]-5-yl}piperidin-4-yl}-2-(dimethylamino)acetamide], below 0.01 µM.
Turning to `CN1CC[C@H](NC(=O)C2(c3ccc(-c4cccn4C4CC4)nc3)CCN(c3ccc(C(F)(F)F)cc3C#N)CC2)C1` [Compound 1-158, 1-[2-cyano-4-(trifluoromethyl)phenyl]-4-[6-(1-cyclopropyl-1H-pyrrol-2-yl)pyridin-3-yl]-N-[(3S)-1-methylpyrrolidin-3-yl]piperidine-4-carboxamide], the Ki is below 0.01 µM.
As for `COc1ccccc1-c1ccc(C2(NC(=O)NCCN(C)C)CCN(c3ccc(C(F)(F)F)cc3C#N)CC2)cn1` [Compound 2-58, 1-{1-[2-cyano-4-(trifluoromethyl)phenyl]-4-[6-(2-methoxyphenyl)pyridin-3-yl]piperidin-4-yl}-3-[2-(dimethylamino)ethyl]urea], the Ki is below 0.01 µM.
In the case of `CCOc1ncccc1-c1ccc(C2(NC(=O)[C@@H]3CCNC3)CCN(c3ccc(C(F)(F)F)cc3C#N)CC2)cn1` [Compound 2-6, (3R)—N-{1-[2-cyano-4-(trifluoromethyl)phenyl]-4-{2′-ethoxy-[2,3′-bipyridin]-5-yl}piperidin-4-yl}pyrrolidine-3-carboxamide] it was below 0.01 µM; in that of `CCOc1ccccc1-c1ccc(C2(C(=O)NCCN(C)C)CCN(c3ccc(C(F)(F)F)cc3F)CC2)cn1` [Compound 1-226, N-[2-(dimethylamino)ethyl]-4-[6-(2-ethoxyphenyl)pyridin-3-yl]-1-[2-fluoro-4-(trifluoromethyl)phenyl]piperidine-4-carboxamide], below 0.01 µM.
Regarding `CCOc1ncccc1-c1ccc(C2(C(=O)NC3CN(C)CC3O)CCN(c3ccc(C(F)(F)F)cc3C#N)CC2)cn1` (single isomer, unassigned) [Compound 1-41, 1-[2-cyano-4-(trifluoromethyl)phenyl]-4-{2′-ethoxy-[2,3′-bipyridin]-5-yl}-N-[(3S,4S)*-4-hydroxy-1-methylpyrrolidin-3-yl]piperidine-4-carboxamide], the Ki is below 0.01 µM.
For `COc1ccccc1-c1ncc(C2(NC(=O)CN(C)C)CCN(c3ccc(C(F)(F)F)cc3C#N)CC2)cc1F` [Compound 2-61, N-{1-[2-cyano-4-(trifluoromethyl)phenyl]-4-[5-fluoro-6-(2-methoxyphenyl)pyridin-3-yl]piperidin-4-yl}-2-(dimethylamino)acetamide], the Ki is below 0.01 µM.
